Source: PubChem BioAssay AID1745844 (Carcinogenic Potency Database (CPDB), 2022)
Values joined by “and” are separate entries in the source; they are usually repeats but may differ in a detail not shown here. Equal entries are not always repeated. Active and inactive are the calls of the source. No rule for the calls is given here.

System: rodent lifetime carcinogenesis bioassay, tumor incidence TD50
Assay: carcinogenic potency in animals, long-term in vivo studies, CPDB compilation (AID 1745844)
[1] = rat, strain Sprague-Dawley, females, in feed, site: any site (literature study), lesion: several types, types named in the paper, dosed 46 weeks, study length 66 weeks

## CC(=O)O[C@]1(C(C)=O)CC[C@H]2[C@@H]3C=C(Cl)C4=CC(=O)[C@@H]5C[C@@H]5[C@]4(C)[C@H]3CC[C@@]21C
mouse, strain C57BL/10J, females, in feed, site: liver, lesion: hepatocellular adenoma, dosed 97 weeks, study length 97 weeks
  TD50: 1120 mg/kg/day
mouse, strain C57BL/10J, females, in feed, site: liver, lesion: hepatocellular carcinoma, dosed 97 weeks, study length 97 weeks
  TD50: 254 mg/kg/day
mouse, strain C57BL/10J, females, in feed, site: liver, lesion: several types, types named in the paper, dosed 97 weeks, study length 97 weeks
  TD50: 254 mg/kg/day
mouse, strain C57BL/10J, females, in feed, site: pylorus, lesion: adenomatous polyp, dosed 97 weeks, study length 97 weeks
  TD50: 16.8 mg/kg/day
mouse, strain C57BL/10J, males, in feed, site: liver, lesion: hepatocellular adenoma, dosed 104 weeks, study length 104 weeks
  TD50: 333 mg/kg/day
mouse, strain C57BL/10J, males, in feed, site: liver, lesion: hepatocellular carcinoma, dosed 104 weeks, study length 104 weeks
  TD50: 179 mg/kg/day
mouse, strain C57BL/10J, males, in feed, site: liver, lesion: several types, types named in the paper, dosed 104 weeks, study length 104 weeks
  TD50: 115 mg/kg/day
mouse, strain C57BL/10J, males, in feed, site: pylorus, lesion: adenomatous polyp, dosed 104 weeks, study length 104 weeks
  TD50: 31.6 mg/kg/day

## O=[N+]([O-])c1ccc(-c2nc(NCCO)c3ccccc3n2)s1
[1]
  TD50: 1.87 mg/kg/day
rat, strain Sprague-Dawley, females, in feed, site: intestine, lesion: leiomyosarcoma, dosed 46 weeks, study length 66 weeks
  TD50: 3.84 mg/kg/day
rat, strain Sprague-Dawley, females, in feed, site: liver, lesion: bile duct adenoma, dosed 46 weeks, study length 66 weeks
  TD50: 132 mg/kg/day

## C[C@]12CC[C@@H]3c4ccc(OC(=O)Cc5ccc(N(CCCl)CCCl)cc5)cc4CC[C@H]3[C@@H]1CC[C@@H]2OC(=O)Cc1ccc(N(CCCl)CCCl)cc1
mouse, strain B6C3F1, females, by gavage, site: all sites + lung + myocardium + stomach, lesion: lymphoma + alveolar/bronchiolar adenoma + alveolar/bronchiolar carcinoma + sarcoma, NOS + squamous-cell carcinoma, dosed 52 weeks, study length 84 weeks
  TD50: 0.682 mg/kg/day
mouse, strain B6C3F1, females, by gavage, site: all sites, lesion: lymphoma, dosed 52 weeks, study length 82 weeks
  TD50: 2.23 mg/kg/day
mouse, strain B6C3F1, females, by gavage, site: all sites, lesion: lymphoma, dosed 52 weeks, study length 84 weeks
  TD50: 2.34 mg/kg/day
mouse, strain B6C3F1, females, by gavage, site: any site (literature study), lesion: several types, types named in the paper, dosed 52 weeks, study length 84 weeks
  TD50: 0.562 mg/kg/day
mouse, strain B6C3F1, females, by gavage, site: lung, lesion: alveolar/bronchiolar adenoma + alveolar/bronchiolar carcinoma, dosed 52 weeks, study length 82 weeks
  TD50: 1.28 mg/kg/day
mouse, strain B6C3F1, females, by gavage, site: lung, lesion: alveolar/bronchiolar adenoma + alveolar/bronchiolar carcinoma, dosed 52 weeks, study length 84 weeks
  TD50: 1.14 mg/kg/day
mouse, strain B6C3F1, females, by gavage, site: lung, lesion: alveolar/bronchiolar carcinoma, dosed 52 weeks, study length 82 weeks
  TD50: 2.87 mg/kg/day
mouse, strain B6C3F1, females, by gavage, site: mammary gland, lesion: adenocarcinoma, NOS + carcinoma, NOS, dosed 52 weeks, study length 82 weeks
  TD50: 12.8 mg/kg/day
mouse, strain B6C3F1, females, by gavage, site: mammary gland, lesion: adenocarcinoma, NOS + carcinoma, NOS, dosed 52 weeks, study length 84 weeks
  TD50: 13.4 mg/kg/day
mouse, strain B6C3F1, females, by gavage, site: myocardium, lesion: sarcoma, NOS, dosed 52 weeks, study length 82 weeks
  TD50: 3.22 mg/kg/day
mouse, strain B6C3F1, females, by gavage, site: myocardium, lesion: sarcoma, NOS, dosed 52 weeks, study length 84 weeks
  TD50: 3.01 mg/kg/day
mouse, strain B6C3F1, females, by gavage, site: stomach, lesion: squamous-cell carcinoma, dosed 52 weeks, study length 84 weeks
  TD50: 5.17 mg/kg/day
mouse, strain B6C3F1, males, by gavage, site: all sites + stomach, lesion: leukemia + lymphoma + squamous-cell carcinoma, dosed 52 weeks, study length 83 weeks
  TD50: 4.1 mg/kg/day
mouse, strain B6C3F1, males, by gavage, site: all sites, lesion: leukemia + lymphoma, dosed 52 weeks, study length 81 weeks
  TD50: 4.31 mg/kg/day
mouse, strain B6C3F1, males, by gavage, site: all sites, lesion: leukemia + lymphoma, dosed 52 weeks, study length 83 weeks
  TD50: 4.39 mg/kg/day
mouse, strain B6C3F1, males, by gavage, site: any site (literature study), lesion: several types, types named in the paper, dosed 52 weeks, study length 83 weeks
  TD50: 1.96 mg/kg/day
mouse, strain B6C3F1, males, by gavage, site: lung, lesion: alveolar/bronchiolar adenoma + alveolar/bronchiolar carcinoma, dosed 52 weeks, study length 81 weeks
  TD50: 1.99 mg/kg/day
mouse, strain B6C3F1, males, by gavage, site: lung, lesion: alveolar/bronchiolar adenoma + alveolar/bronchiolar carcinoma, dosed 52 weeks, study length 83 weeks
  TD50: 2.34 mg/kg/day
mouse, strain B6C3F1, males, by gavage, site: lung, lesion: alveolar/bronchiolar carcinoma, dosed 52 weeks, study length 81 weeks
  TD50: 3.61 mg/kg/day
mouse, strain B6C3F1, males, by gavage, site: myocardium, lesion: sarcoma, NOS, dosed 52 weeks, study length 81 weeks
  TD50: 5.55 mg/kg/day
mouse, strain B6C3F1, males, by gavage, site: stomach, lesion: squamous-cell carcinoma, dosed 52 weeks, study length 83 weeks
  TD50: 29 mg/kg/day
rat, strain Sprague-Dawley, females, by gavage, site: any site (literature study), lesion: several types, types named in the paper, dosed 52 weeks, study length 85 weeks
  TD50: 0.189 mg/kg/day (inactive)
rat, strain Sprague-Dawley, males, by gavage, site: any site (literature study), lesion: several types, types named in the paper, dosed 52 weeks, study length 85 weeks
  TD50: 3.85 mg/kg/day (inactive)
rat, strain Sprague-Dawley, males, by gavage, site: mammary gland, lesion: fibroadenoma, dosed 52 weeks, study length 85 weeks
  TD50: 0.756 mg/kg/day (inactive)

## CC(Cl)C=O (stereo not given)
mouse, strain Ha/ICR, females, by gavage, site: forestomach, lesion: one or several types, types not named, dosed 89 weeks, study length 89 weeks
  TD50: 12.9 mg/kg/day
mouse, strain Ha/ICR, males, by gavage, site: forestomach, lesion: one or several types, types not named, dosed 89 weeks, study length 89 weeks
  TD50: 22.7 mg/kg/day

## CC1=C(CC(=O)O)c2cc(F)ccc2/C1=C\c1ccc(S(C)(=O)=O)cc1
rat, strain Fischer 344, males, in feed, site: colon, lesion: one or several types, types not named, dosed 53 weeks, study length 53 weeks
  carcinogen call: negative (inactive)

## CCC1CO1 (stereo not given)
mouse, strain B6C3F1, females, inhaled, site: any site (literature study), lesion: several types, types named in the paper, dosed 102 weeks, study length 104 weeks
  TD50: 141 mg/kg/day (inactive)
mouse, strain B6C3F1, females, inhaled, site: liver, lesion: hepatocellular adenoma + hepatocellular carcinoma + neoplastic nodule, dosed 102 weeks, study length 104 weeks
  TD50: 445 mg/kg/day
mouse, strain B6C3F1, females, inhaled, site: lung, lesion: alveolar/bronchiolar adenoma + alveolar/bronchiolar carcinoma, dosed 102 weeks, study length 104 weeks
  TD50: 834 mg/kg/day
mouse, strain B6C3F1, males, inhaled, site: any site (literature study), lesion: several types, types named in the paper, dosed 102 weeks, study length 104 weeks
  TD50: 2470 mg/kg/day (inactive)
mouse, strain B6C3F1, males, inhaled, site: liver, lesion: hepatocellular adenoma + hepatocellular carcinoma + neoplastic nodule, dosed 102 weeks, study length 104 weeks
  TD50: 8600 mg/kg/day
rat, strain Fischer 344, females, inhaled, site: any site (literature study), lesion: several types, types named in the paper, dosed 103 weeks, study length 105 weeks
  TD50: 78 mg/kg/day
rat, strain Fischer 344, females, inhaled, site: nasal cavity, lesion: papillary adenoma, dosed 103 weeks, study length 105 weeks
  TD50: 1730 mg/kg/day
rat, strain Fischer 344, females, inhaled, site: ovary, lesion: granulosa-cell carcinoma + granulosa-cell tumor + thecoma, dosed 103 weeks, study length 105 weeks
  TD50: 545 mg/kg/day
rat, strain Fischer 344, females, inhaled, site: pituitary gland, anterior, lesion: adenoma, NOS, dosed 103 weeks, study length 105 weeks
  TD50: 83.8 mg/kg/day
rat, strain Fischer 344, females, inhaled, site: thyroid gland, lesion: follicular-cell adenoma + follicular-cell carcinoma, dosed 103 weeks, study length 105 weeks
  TD50: 509 mg/kg/day
rat, strain Fischer 344, males, inhaled, site: any site (literature study), lesion: several types, types named in the paper, dosed 103 weeks, study length 105 weeks
  TD50: 79.6 mg/kg/day
rat, strain Fischer 344, males, inhaled, site: liver, lesion: hepatocellular adenoma + hepatocellular carcinoma + neoplastic nodule, dosed 103 weeks, study length 105 weeks
  TD50: 622 mg/kg/day
rat, strain Fischer 344, males, inhaled, site: lung + nasal cavity, lesion: alveolar/bronchiolar adenoma + alveolar/bronchiolar carcinoma + papillary adenoma, dosed 103 weeks, study length 105 weeks
  TD50: 106 mg/kg/day
rat, strain Fischer 344, males, inhaled, site: lung, lesion: alveolar/bronchiolar adenoma + alveolar/bronchiolar carcinoma, dosed 103 weeks, study length 105 weeks
  TD50: 220 mg/kg/day
rat, strain Fischer 344, males, inhaled, site: lung, lesion: alveolar/bronchiolar carcinoma, dosed 103 weeks, study length 105 weeks
  TD50: 314 mg/kg/day
rat, strain Fischer 344, males, inhaled, site: multiple organs + spleen, lesion: mononuclear-cell leukemia, dosed 103 weeks, study length 105 weeks
  TD50: 30.7 mg/kg/day
rat, strain Fischer 344, males, inhaled, site: nasal cavity, lesion: papillary adenoma, dosed 103 weeks, study length 105 weeks
  TD50: 220 mg/kg/day

## O=NN1CCNCC1
rat, strain MRC, females, in drinking water, site: any site (literature study), lesion: several types, types named in the paper, dosed 60 weeks, study length 127 weeks
  TD50: 5.51 mg/kg/day
rat, strain MRC, males, in drinking water, site: any site (literature study), lesion: several types, types named in the paper, dosed 60 weeks, study length 127 weeks
  TD50: 21.6 mg/kg/day
rat, strain MRC, males, in drinking water, site: liver, lesion: hepatoma, dosed 60 weeks, study length 127 weeks
  TD50: 6.52 mg/kg/day

## O=NN(CCO)CC(O)CO (stereo not given)
hamster, strain Syrian Golden, females, by gavage, site: trachea, lesion: adenoma, dosed 50 weeks, study length 104 weeks
  TD50: 52.7 mg/kg/day
rat, strain Fischer 344, females, in drinking water, site: liver, lesion: hepatocellular carcinoma, dosed 75 weeks, study length 120 weeks
  TD50: 11.5 mg/kg/day
rat, strain Fischer 344, females, in drinking water, site: liver, lesion: neoplastic nodule, dosed 75 weeks, study length 120 weeks
  TD50: 8.69 mg/kg/day
rat, strain Fischer 344, females, in drinking water, site: liver, lesion: several types, types named in the paper, dosed 75 weeks, study length 120 weeks
  TD50: 5.98 mg/kg/day

## Nc1nc(N)nc(-c2ccc([N+](=O)[O-])o2)n1
[1]
  TD50: 1.71 mg/kg/day
rat, strain Sprague-Dawley, females, in feed, site: mammary gland, lesion: adenocarcinoma, dosed 46 weeks, study length 66 weeks
  TD50: 4.49 mg/kg/day
rat, strain Sprague-Dawley, females, in feed, site: mammary gland, lesion: several types, types named in the paper, dosed 46 weeks, study length 66 weeks
  TD50: 1.71 mg/kg/day

## COC(=O)c1ccc(C(=O)OC)cc1
mouse, strain B6C3F1, females, in feed, site: any site (literature study), lesion: several types, types named in the paper, dosed 103 weeks, study length 105 weeks
  TD50: 4340 mg/kg/day (inactive)
mouse, strain B6C3F1, females, in feed, site: lung, lesion: alveolar/bronchiolar adenoma + alveolar/bronchiolar carcinoma, dosed 103 weeks, study length 105 weeks
  TD50: 44000 mg/kg/day
mouse, strain B6C3F1, males, in feed, site: lung, lesion: alveolar/bronchiolar adenoma + alveolar/bronchiolar carcinoma, dosed 103 weeks, study length 104 weeks
  TD50: 1160 mg/kg/day (inactive) and 1160 mg/kg/day
rat, strain Fischer 344, females, in feed, site: any site (literature study), lesion: several types, types named in the paper, dosed 103 weeks, study length 105 weeks
  TD50: 342 mg/kg/day (inactive)
rat, strain Fischer 344, males, in feed, site: any site (literature study), lesion: several types, types named in the paper, dosed 103 weeks, study length 105 weeks
  carcinogen call: negative (inactive)
